SMILES strings stand for the structures.

In one assay the target is tyrosinase from fungi. Briefly: Tyrosinase assay (L-DOPA as substrate). The note with it: tyrosinase from fungi (16U), phosphate buffer pH 6.8, 25° C., optical density at 470 nm. It counts as biochemical. Here is the method: The action of the compounds I or Ia as skin lighteners is tested through their ability to inhibit the enzyme tyrosinase and thus to suppress melanin synthesis.
The inhibiting action of the compounds of the formula I or Ia against tyrosinase is assessed using tyrosinase from fungi and L-DOPA as substrate.
The compounds, as described in Examples 1 to 3 and the comparative compounds of Examples 10 and 11, and L-dopa are pre-incubated for 10 minutes at 25° C. in phosphate buffer (pH 6.8), and tyrosinase from fungi (16U) (Fluka) is subsequently added. The optical density of the samples is measured at 470 nm against a negative control (without active compound). Kojic acid is likewise tested as tyrosinase reference, i.e. positive control.
The results are shown in the following table, expressed in the IC50 value (the concentration of the test compound at which 50% of the tyrosinase activity is inhibited).
In the case of `Cc1cc(O)c(C)c2c1OC(=O)CC2(C)C` [Example 10, 6-hydroxy-4,4,5,8-tetramethylchroman-2-one], the “IC50 (concentration of the test compound at which 50% of the tyrosinase activity is inhibited)” value is listed as “No inhibition”.
`Cc1c(C)c2c(c(C)c1O)C(C)(C)CC(=O)O2` [Example 11, 6-hydroxy-4,4,5,7,8-pentamethylchroman-2-one]: the “IC50 (concentration of the test compound at which 50% of the tyrosinase activity is inhibited)” value is on record as “No inhibition”.

Still in this assay, the particulars now being: tyrosinase from fungi (16U), phosphate buffer pH 6.8, 25° C., optical density at 470 nm, read-out: IC50 (concentration of the test compound at which 50% of the tyrosinase activity is inhibited).
Regarding `CCc1cc2c(cc1O)OC(=O)CC2` [6-Ethyl-7-hydroxychroman-2-one, 6-ethyl-7-hydroxychroman-2-one], the IC50 came out at 336 µM.
With `CCCCCCc1cc2c(cc1O)OC(=O)CC2` [6-Hexyl-7-hydroxychroman-2-one, 6-hexyl-7-hydroxychroman-2-one], the IC50 amounted to 25 µM.
Take `O=C1CCc2ccc(O)cc2O1` [7-Hydroxychroman-2-one, 7-hydroxychroman-2-one]: the IC50 is 1000 µM.
Regarding `O=c1cc(CO)occ1O` [Kojic acid], the IC50 was determined as 12 µM.

Values taken from US20100291009A1, “PREPARATION COMPRISING CHROMAN-2-ONE DERIVATIVES” (Merck Patent Gesellschaft Mit Beschrankter Haftung, priority 2008, published 2010).
